Measured values taken from patent US7524487B2, “Compositions and methods for modulating interleukin-10” (University of Maryland, priority 2005, dated 2009).

Test system: IL-10 promoter
Experiment: DNase I accessibility of the IL-10 promoter (nucleosome −2) by QRT-PCR
Assay type: cell-based, mice
Settings: BMMφ pre-treated with PD98059 15 μM for 1 hour, IC plus LPS 10 ng/mL for 60 min
Procedure: FIG. 23 are graphs showing enhanced chromatin accessibility following ERK activation. (A) BMMφ were stimulated with IC plus LPS (10 ng/mL) for 0, 15, 30, 60, and 120 min. Nuclei were isolated at each time point post-stimulation and treated with or without MNase. DNA was purified and analyzed for the presence of sequences corresponding to nucleosomes −2 and −12 by QRT-PCR. The data were graphically plotted as percentage of MNase accessibility relative to the samples of stimulation at zero time point. (B) BMMφwere pre-treated with PD98059 (15 μM) (open bars) or drug vehicle control (solid bars) for 1 hour and then stimulated with IC plus LPS (10 ng/mL) for 60 min. Nuclei were isolated from each group and treated with or without DNase I followed by extraction of genomic DNA. […] The data were expressed as percentage of DNase I accessibility relative to undigested genomic DNA sample and graphically plotted for each treated group. […]
DNase I sensitivity assayed by Real-time PCR. DNase I accessibility was determined as previously described (Goriely, et al. 2003. Blood 101:4894-4902; Rao, et al. 2001. J. Immunol. 167:4494-4503.) with minor modifications. […]
MNase accessibility assay was performed on cells grown in 100-mm tissue culture dishes that were stimulated with LPS/IC. […] DNase I accessibility was determined as previously described (Lucas, M., X. Zhang, et al. 2005. J. Immunol. 175:469).

reduction of sensitivity to DNase I at nucleosome −2: greater than half
SMILES: COc1cccc(-c2cc(=O)c3ccccc3o2)c1N [PD98059]
